# Measured values: ChEMBL document CHEMBL1147639, “Quinolines as extremely potent and selective PDE5 inhibitors as potential agents for treatment of erectile dysfunction” (Bioorg Med Chem Lett, 2004)
# Tests used:
# [1] = Relative inhibition of rat kidney PDE4 and human platelet PDE 5
# [2] = Relative inhibition of bovine retina PDE6 and human platelet PDE 5
# [3] = biological target: cGMP-specific 3',5'-cyclic phosphodiesterase (Homo sapiens, UniProt O76074); assay: Inhibition of phosphodiesterase 5 from human platelets
# [4] = Relative inhibition of bovine heart PDE1 and human platelet PDE5
# [5] = Relative inhibition of rat kidney PDE2 and human platelet PDE 5
# [6] = Inhibition of phosphodiesterase 4
# Phosphodiesterase 3 = Phosphodiesterase 3 (Homo sapiens, UniProt Q14432+Q13370); assay: Inhibitory activity of compound against phosphodiesterase 3 was tested; type: protein assay
# Phosphodiesterase 1 = Phosphodiesterase 1 (Bos taurus, UniProt Q01061+P14100); assay: Inhibition of phosphodiesterase 1 of bovine heart; type: protein assay
# [7] = biological target: cGMP-dependent 3',5'-cyclic phosphodiesterase (Rattus norvegicus) (UniProt Q01062); assay: Inhibition of phosphodiesterase 2
# Phosphodiesterase 6 = assay: Inhibition of phosphodiesterase 6; type: protein assay
# Chain of cGMP-dependent 3',5'-cyclic phosphodiesterase (Rattus norvegicus) (Q01062 whole entry, looked up): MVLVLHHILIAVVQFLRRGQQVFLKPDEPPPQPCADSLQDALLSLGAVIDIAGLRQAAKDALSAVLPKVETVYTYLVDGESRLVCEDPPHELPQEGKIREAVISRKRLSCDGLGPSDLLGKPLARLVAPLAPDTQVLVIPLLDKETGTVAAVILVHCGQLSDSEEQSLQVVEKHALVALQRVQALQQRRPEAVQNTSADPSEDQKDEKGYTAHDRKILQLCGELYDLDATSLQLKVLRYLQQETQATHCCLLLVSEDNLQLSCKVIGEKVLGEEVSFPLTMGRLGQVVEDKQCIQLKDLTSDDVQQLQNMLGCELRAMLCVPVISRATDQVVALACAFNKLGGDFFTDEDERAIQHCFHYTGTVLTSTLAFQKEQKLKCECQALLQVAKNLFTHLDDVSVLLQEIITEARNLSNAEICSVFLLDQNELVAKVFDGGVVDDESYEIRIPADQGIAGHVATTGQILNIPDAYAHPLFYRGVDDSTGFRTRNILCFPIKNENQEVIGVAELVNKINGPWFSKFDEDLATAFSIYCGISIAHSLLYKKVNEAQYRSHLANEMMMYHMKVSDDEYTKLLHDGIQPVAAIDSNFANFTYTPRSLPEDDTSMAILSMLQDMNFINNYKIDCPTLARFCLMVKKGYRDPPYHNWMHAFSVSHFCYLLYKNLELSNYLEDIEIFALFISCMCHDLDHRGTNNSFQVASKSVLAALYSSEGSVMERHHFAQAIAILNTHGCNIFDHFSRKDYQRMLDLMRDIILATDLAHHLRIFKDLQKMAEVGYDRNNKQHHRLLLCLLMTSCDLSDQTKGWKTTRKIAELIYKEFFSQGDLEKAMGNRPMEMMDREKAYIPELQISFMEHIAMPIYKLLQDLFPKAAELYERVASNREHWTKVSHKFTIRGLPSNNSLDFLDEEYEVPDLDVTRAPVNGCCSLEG
Compound,Selectivity ratio [1],Selectivity ratio [2],IC50 [3] [nM],Selectivity ratio [4],Selectivity ratio [5],IC50 [6] [nM],IC50 (Phosphodiesterase 3) [nM],IC50 (Phosphodiesterase 1) [nM],IC50 [7] [nM],IC50 (Phosphodiesterase 6) [nM]
CCc1cc(C#N)cc2c(NCc3ccc(OC)c(Cl)c3)c(C(=O)NCc3ccccn3)cnc12,4500,82,0.55,–,–,–,–,–,–,–
CCOC(=O)c1cnc2c(CC)cc(C#N)cc2c1NCc1ccc(OC)c(Cl)c1,> 100000,110,0.6,> 100000,> 100000,–,–,–,–,–
CCOC(=O)c1cnc2cc(C(F)(F)F)ccc2c1NCc1ccc(OC)c(Cl)c1,> 310,125,160,> 310,> 310,> 50000,> 50000,> 50000,> 50000,20000
COc1ccc(CNc2c(C(=O)NCc3ccccn3)cnc3ccc(C#N)cc23)cc1Cl,3100,64,1.3,> 100000,> 100000,–,–,–,–,–
CCc1cc(C#N)cc2c(NCc3ccc(OC)c(Cl)c3)ccnc12,2200,40,–,–,–,–,–,–,–,–
CCc1cc(C#N)cc2c(NCc3ccc(OC)c(Cl)c3)c(CO)cnc12,–,7800,0.05,> 1e+06,> 100000,–,–,–,–,–
CCOC(=O)c1cnc2ccc(C#N)cc2c1NCc1ccc(OC)c(Cl)c1,3800,15,–,–,> 100000,–,–,–,–,–
CCOC(=O)c1cnc2ccc(C(F)(F)F)cc2c1NCc1ccc(OC)c(Cl)c1,247,75,73,> 680,> 680,–,–,–,–,–
COc1ccc(CNc2c(CO)cnc3ccc(C#N)cc23)cc1Cl,> 100000,23,0.48,> 100000,8600,–,–,–,–,–
COc1ccc(CNc2ccnc3ccc(C#N)cc23)cc1Cl,3500,29,1.4,6400,> 100000,–,–,–,–,–
